Laboratory results taken from PubChem BioAssay (NCI).
Where “and” joins values, the source holds several entries; their conditions need not be identical. Equal values may be shown once.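 Values below derive from 48-hour exposures of cells grown in 96-well plates, with endpoints linearly interpolated between the two concentrations bracketing the appropriate inhibition level. GI50 marks 50% less growth. The concentration for full growth arrest is given as TGI.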

Experiments:
Experiment in all cases: inhibition of tumour cell growth, NCI panel, 48 h
MCF7 breast = system: MCF7 breast
HS 578T breast = system: HS 578T breast
T-47D breast = system: T-47D breast
BT-549 breast = system: BT-549 breast
MDA-N = system: MDA-N
XF 498 CNS = system: XF 498 CNS
DMS 273 small cell lung = system: DMS 273 small cell lung
SNB-78 CNS = system: SNB-78 CNS

Row | SMILES | GI50 (MCF7 breast) | TGI (MCF7 breast) | GI50 (HS 578T breast) | TGI (HS 578T breast) [µM] | GI50 (T-47D breast) | TGI (T-47D breast) | GI50 (BT-549 breast) | TGI (BT-549 breast) [µM] | TGI (MDA-N) [µM] | TGI (XF 498 CNS) [µM] | TGI (DMS 273 small cell lung) [µM] | TGI (SNB-78 CNS) [µM]
1 | COc1cccc(COc2cc(-n3cnc4ccccc43)sc2C(N)=O)c1 | 1.08 µM | > 25 µM | > 17.7 µM | > 25 | > 25 µM | > 25 µM | > 21 µM | > 25 |  |  |  | 
2 | CCOC(=O)c1c(SCCN2CCOCC2)n(-c2ccccc2)c(=S)n(-c2ccccc2)c1=O |  | 41.5 µM |  | 87.4 |  | > 100 µM |  | > 100 | > 100 |  |  | 
3 | Cc1ccc2oc(=O)c(-c3ccccc3)nc2c1 |  |  |  |  |  |  |  |  |  | > 100 | 37.6 | 
4 | C=CC1=C(C)C2=NC1=CC1=NC(=CC3=C(C)C4=C(O)[C@H](C(=O)OC)C(=C5NC(=C2)[C@@H](C)[C@@H]5CCC(=O)O)C4=N3)C(CC)=C1C |  | 11 µM |  | > 100 |  | 62.4 µM |  | > 20.2 | > 100 |  |  | 
5 | O=C1[C@H]2ON(c3ccccc3)C(c3ccco3)[C@H]2C(=O)N1c1ccc(Cc2ccc(N3C(=O)[C@@H]4ON(c5ccccc5)C(c5ccco5)[C@@H]4C3=O)cc2)cc1 (stereo not given in full) |  |  |  |  |  |  |  |  |  | > 100 | > 100 | > 100
6 | COc1ccc(-c2cnoc2-c2cc(OC)c3c(c2)OCCO3)cc1 | 0.0304 µM | > 100 µM | 0.0283 µM | 11.7 |  |  | 0.073 µM | 27.8 |  |  |  | 
7 | Cc1ccc(NC(=O)/C(Cc2nc3ccc([N+](=O)[O-])cc3[nH]c2=O)=N\NC(=O)C[n+]2ccccc2)c(C)c1 |  | > 100 µM |  | > 100 |  |  |  | > 100 | > 100 |  |  | 
8 | Nc1cc(-c2ccc(Cl)cc2)nn1-c1nnc(/C=C/c2ccco2)c(=O)[nH]1 | 2.95 µM | 26.1 µM | 10.2 µM | > 64.3 | 5.35 µM | > 66.5 µM | 5.62 µM | 55.5 |  |  |  | 
9 | N#CC(C#N)=c1c2nsnc2c(=C(C#N)C#N)c2nsnc12 |  |  |  |  |  |  |  |  |  |  | 3.24 | 3.28
10 | c1cnn2ncc(-c3ccnc(Nc4ccc5c(c4)OCCO5)n3)c2c1 | 0.0797 µM | > 25 µM | 0.0747 µM | 0.323 | 0.084 µM | 0.495 µM | 0.0588 µM | 0.2 |  |  |  | 
11 | CC(C)(C)c1ccc(OC2CCO2)cc1 (stereo not given) |  |  |  |  |  |  |  |  |  |  | > 100 | > 100
12 | Clc1ccc2c(c1)N(c1ncnc3ccc(-c4cnc5[nH]ncc5c4)cc13)CC2 | 0.228 µM | > 100 µM | 0.162 µM | 0.651 | 0.0424 µM | 0.693 µM | 0.676 µM | > 100 |  |  |  | 
13 | O=C1c2ccccc2-c2c1c1ccccc1c(=O)n2CCNCCn1c2c(c3ccccc3c1=O)C(=O)c1ccccc1-2 | > 25 µM | > 25 µM | > 25 µM | > 25 |  |  | > 25 µM | > 25 |  |  |  | 
14 | COC(=O)c1ccc2c(c1)C(=O)c1c-2n(CCCN=[N+]=[N-])c(=O)c2cc([N+](=O)[O-])ccc12 | > 100 µM | > 100 µM | 42.6 µM | > 100 | > 100 µM | > 100 µM | 24.1 µM | 69.6 |  |  |  | 
15 | Cc1cccc(C)c1N1C(=O)C(=O)C(c2nc3ccccc3s2)C(=Nc2cccc3c(=O)[nH][nH]c(=O)c23)C1=O (stereo not given) |  |  |  |  |  |  |  |  |  |  | > 100 | > 100
16 | Cc1ccc(-n2nc(C(C)(C)C)cc2NC(=O)NCc2cc(F)ccc2Oc2ccc3c(cnn3CCO)c2)cc1 | 3.55 µM and 3.26 µM | > 10 µM and 51.7 µM | > 10 µM and 10.1 µM | > 100 | 3.79 µM and 3.76 µM | > 10 µM and 32.7 µM | > 10 µM and 4.68 µM | > 96.1 |  |  |  | 
17 | O=C1/C(=C/c2cccc([N+](=O)[O-])c2)Sc2scc(-c3ccc([N+](=O)[O-])cc3)[n+]21 |  | > 100 µM |  |  |  | > 100 µM |  | 28.8 | > 100 |  |  | 
18 | CC1=NN(C(=O)c2ccncc2)C(=O)C1N=Nc1ccc(F)cc1 (stereo not given) |  |  |  |  |  |  |  |  |  | > 100 | > 100 | > 100
19 | CC(C)Oc1ccc(C(=O)Cn2ccnc2)cc1-n1c(CN2CCN(C(=O)COc3ccc(Cl)cc3)CC2)nc2ccccc2c1=O | 12 µM | 35.5 µM | 15.8 µM | 46.6 | 14.3 µM | > 95.4 µM | 13.5 µM | 30.9 |  |  |  | 
20 | O=C(O)c1ccccc1C(=O)c1ccc2c(c1)Cc1ccccc1-2 |  | > 100 µM |  | > 100 |  | > 100 µM |  | > 100 | > 100 |  |  | 
21 | OCc1ccc(N2CCOCC2)cc1Cl | 15.8 µM | > 100 µM | > 100 µM | > 100 | 14.7 µM | > 84.1 µM | > 100 µM | > 100 |  |  |  | 
22 | CCCCCCCCCCCCCC[n+]1cccc(C(N)=O)c1 | 2.62 µM | 11.4 µM | 2.64 µM | 10.3 | 4.66 µM | 27.6 µM |  |  |  |  |  | 
23 | C/C1=C\CC[C@@](C)(O)[C@@H]2C[C@H](CC/C(C)=C/CC1)C1(CC1)C(=O)O2 | 66.9 µM | > 100 µM | 22.1 µM | 60 | 16.7 µM | 67.2 µM | 25.5 µM | 69.7 |  |  |  | 
24 | O=C1c2cccc3cccc(c23)C(=O)N1O |  | > 100 µM |  | > 100 |  | > 100 µM |  | > 100 | > 100 |  |  | 
25 | COc1ccc(C2=C(N3CCc4ccccc43)C(=O)NC2=O)cc1 | > 25 µM | > 25 µM | > 20.9 µM | > 25 | > 17.8 µM | > 25 µM | 24.2 µM | > 25 |  |  |  | 
26 | CCn1c(-c2nonc2N)nc2ccncc21 | > 25 µM | > 25 µM | > 25 µM | > 25 | > 25 µM | > 25 µM | > 25 µM | > 25 |  |  |  | 
27 | c1ccc2[nH]c(CNc3ccc(C4C[Se]N=N4)cc3)nc2c1 (stereo not given) |  |  |  |  |  |  |  |  |  |  | > 100 | 
28 | COc1cccc2c(=O)c3c(sc12)c(NCCCNCCO)nc1ccccc13 | 1.46 µM | 3 µM | 1.65 µM | 4.07 | 1.48 µM | 3.48 µM | 5.29 µM | 18.6 |  |  |  | 
29 | COc1ccc(C2Oc3c(c(O)cc4c3[C@H](c3ccc(O)cc3O)[C@H](O)C(c3ccc(O)c(O)c3)O4)C[C@@H]2O)cc1O (stereo not given in full) |  |  |  |  |  |  |  |  |  |  | > 100 | > 100
30 | CSc1ccc(N(C)c2nc(C)nc3c2CCC3)cc1 | < 0.01 µM | > 100 µM | < 0.01 µM | > 100 |  |  | < 0.01 µM | < 0.01 |  |  |  | 
